Laboratory results: US20040192673A1, “N-aroyl cyclic amine derivatives as orexin receptor antagonists” (priority 2001, published 2004)

Experiments:
freely-feeding rats = conditions: central administration, 4 hour time period; cited from earlier work
rat = experiment: Rat sleep/EEG studies; type: in vivo; conditions: central administration at the onset of the normal sleep period
Excerpt: Therefore antagonists of its receptor may be useful in the treatment of sleep disorders including insomnia.

Substance: orexin-A: ligand for the orexin-1 receptor, an agonist of the orexin receptors; 33-residue peptide, sequence in b167 (QPLPDCCRQKTCSCRLYELLHGAGNHAAGILTL; not fully specified; Orexin-A; UniProt O43612 34-66, looked up)
- increase in food intake over control rats receiving vehicle (freely-feeding rats): approximately four-fold
- arousal (sleep/EEG) (rat): dose-related increase in arousal
